Measurements taken from publication PMC12030314, “Biomarker-Driven Pharmacokinetics and Efficacy of Polymyxin B in Critically Ill Patients with XDR-GN Pneumonia” (Pharmaceuticals, 2025).
Like-named read-outs stand apart in the source and are kept apart here. Where a SMILES comes first, the peptide text is derived from it. Bridges are numbered along the chain shown (N, C = ends). [ ]: non-standard residue; d: D form. The star is where a group is joined. X1 = CC[C@H](C)CCCCC(=O)*; Dab = NCC[C@H](N)C(=O)O

How the values were obtained:
[1] = PMB concentration in epithelial lining fluid (BAL, urea dilution method); assay type: in vivo; conditions: human, iv, 50 mg; for Kp at 96 h: epithelial lining fluid / plasma, read-out: ELF/plasma ratio; for level at 96 h: epithelial lining fluid; for Cmax: plasma, patients with BAL samples
Protocol: BAL sample collection was possible for 15 of the patients. If the patients’ respiratory status permitted, one BAL was performed immediately after the seventh dose (on day 4 of treatment). Four 20 mL aliquots of sterile 0.9% normal saline solution were instilled, immediately aspirated, and placed on ice. The aspirate from the first 20 mL instillation was collected and discarded. The aspirates recovered from the second, third, and fourth instillations were pooled.
Blood and BAL samples were centrifuged for 10 min (3000 rpm) and immediately stored at −80 °C until analysis.
PMB concentrations in the samples were quantified by monitoring the total concentrations of polymyxin B1 (PB1), polymyxin B2 (PB2), polymyxin B3 (PB3), and isoleucine polymyxin B1 (I-PB1) via a validated ultraperformance liquid chromatography–tandem mass spectrometry (UPLC-MS/MS) assay. The standard substances, including PB1 (CAS P037), PB2 (CAS P037), PB3 (CAS P040), and I-PB1 (CAS P038), were purchased by TOKU-E Company (>99% pure, Bellingham, WA, USA). ACQUITY UPLC system, Quattro PremierXE triple quadrupole mass spectrometer, electrospray isonizaiton source (ESI), and Masslynx 4.1 data processing software were used in this study (Waters Company, Milford, MA, USA). An Acquity UPLC BEH C18 column (50 mm × 2.1 mm internal diameter, 1.8 μm) purchased from Waters (Milford, MA, USA) was used. The mobile phase comprised a 0.2% formic acid aqueous solution and a 0.2% formic acid acetonitrile solution, and the flow rate was 0.3 mL/min. Mass spectrometric detection was performed in positive electrospray ionization (ESI+) mode with multiple reaction monitoring (MRM). The optimized transitions were set as follows: m/z 602.7→101.0 for PB1 and I-PB1, m/z 595.7→100.9 for PB2 and PB3, and […] for the internal standard norvancomycin. Plasma and BAL supernatant was aliquoted into microcentrifuge tubes and sequentially treated with 20 μL norvancomycin or 200 μL 5% trichloroacetic acid. 1 μL plasma and 2 μL BAL of supernatant were collected separately for the detection of PMB concentrations.
The ELF recovery rate was calculated via the urea dilution method, as reported in previous studies. The concentration of urea was analysed with a commercial kit purchased from Beijing Solarbio Science & Technology Co., Ltd., Beijing, China (BC1535). The concentration of PMB in the ELF (ELF[PMB]) was measured by using urea as an endogenous marker of ELF dilution via the following equation: ELF[PMB] = BAL[PMB] × (blood urea/BAL[Urea]), where BAL[PMB] is the concentration of PMB in BAL and BAL[Urea] is the concentration of urea in BAL.

[2] = cited from earlier work
[3] = cited from earlier work; remark: listed apart in the source
Description: Colistin (colistin methanesulfonate, CMS) and polymyxin B (PMB) are polymyxins that were approved for clinical use in the 1950s worldwide. Colistin is clinically administered as a prodrug, which requires conversion to the active form in vivo. […] The elimination of colistin is primarily dependent on renal function. Patients with renal impairment are prone to drug accumulation and increased nephrotoxicity risk. PMB is ... || Finally, we cannot rule out the possibility of the potential impacts of other combined drugs on PMB PK and the heterogeneity among the patients in our study. To date, little evidence supports the conclusion that the combined use of other drugs affects PMB PK. Studies have shown that urinary recovery from PMB is low (<5%). […] Further studies examining the nonrenal routes of PMB elimination are warranted, ...

[4] = Asian and American patients, one-compartment model, ref Manchandani et al., 2018 [47]
[5] = Asian and American patients, ref Manchandani et al., 2018 [47]
[6] = Brazilian, Australian critically ill patients, ref Sandri et al., 2013 [48]
[7] = Chinese MDR Gram-negative infected patients, ref Wang et al., 2020 [50]
[8] = Chinese critically ill patients, CRO nosocomial pneumonia, ref Tang et al., 2023 [59]
[9] = Chinese critically ill patients, CRO nosocomial pneumonia, ref Zhang et al., 2023 [60]
[10] = Chinese critically ill patients, ref Pi et al., 2023 [57]
[11] = Chinese patients with CRKP bloodstream infections, ref Yu et al., 2022 [56]
[12] = Chinese patients with various renal functions, 100–200 mg/day, ref Yu et al., 2020 [51]
[13] = ECMO, Russian critically ill patients, ref Surovoy et al., 2022 [53]
[14] = Non-ECMO, Russian critically ill patients, ref Surovoy et al., 2022 [53]
[15] = Renal insufficiency, Thai, American patients, ref Thamlikitkul et al., 2016 [52]

CC[C@H](C)CCCCC(=O)N[C@@H](CCN)C(=O)N[C@H](C(=O)N[C@@H](CCN)C(=O)N[C@H]1CCNC(=O)[C@H]([C@@H](C)O)NC(=O)[C@H](CCN)NC(=O)[C@H](CCN)NC(=O)[C@H](CC(C)C)NC(=O)[C@@H](Cc2ccccc2)NC(=O)[C@H](CCN)NC1=O)[C@@H](C)O [PMB, polymyxin B] (X1-[Dab]T[Dab][Dab][Dab][dF]L[Dab][Dab]T; lactam 4-C)
Kp at 96 h ([1]; treatment failure group, median [IQR]): 0.088 | Kp at 96 h ([1]; treatment success group, median [IQR]): 0.17 | level at 96 h ([1]; BAL immediately after the seventh dose (day 4), urea dilution method, median and IQR, read-out: ELF concentration): 0.9 µg/mL | level at 96 h ([1]; treatment failure group, median [IQR], read-out: PMB concentration in the ELF): 0.98 µg/mL | level at 96 h ([1]; treatment success group, median [IQR], read-out: PMB concentration in the ELF): 0.84 µg/mL | Cmax ([1]; median and IQR, read-out: plasma Cmax): 7.46 µg/mL | Cmax ([1]; treatment failure group, median [IQR], read-out: Cmax): 11.1 µg/mL | Cmax ([1]; treatment success group, median [IQR], read-out: Cmax): 5.94 µg/mL | V1 ([2]; American acutely ill patients, Gram-negative infection, loading 2.5 to 3 mg/kg, maintenance 2.8 mg/kg/day, one-compartment model, ref Kubin et al., 2018 [46]): 34.4 L | V2 ([2]; American acutely ill patients, Gram-negative infection, two-compartment model, ref Miglis et al., 2018 [45]): 78.20 L | CL ([2]; American critically ill patients with Gram-negative infections): approximately 2.5 L/h | V [2, 4]: 34.3 L | t1/2 [2, 4]: 10.1 h | AUC in patients with nephrotoxicity [2, 5]: 52.3 µg·h/mL | AUC in patients without nephrotoxicity [2, 5]: 45.1 µg·h/mL | AUCss,0–24h ([2]; Brazilian, Australian critically ill patients, 0.45–3.38 mg/kg/day, nonlinear mixed-effects model (PMB1 and PMB2), ref Sandri et al., 2013 [48]): 66.9 µg·h/mL | CL [2, 6]: 0.0276 L/h/kg | Css,avg [2, 6]: 2.79 µg/mL | V1 [2, 6]: 0.0939 L/kg | V2 [2, 6]: 0.330 L/kg | AUCss,0–24h ([2]; Chinese MDR Gram-negative infected patients, all, ref Wang et al., 2021 [49]): 80.14 µg·h/mL | V1 ([2]; Chinese MDR Gram-negative infected patients, 100 to 200 mg/day, one- and two-compartment models, ref Wang et al., 2020 [50]): 6.218 L | AUCss,0–12 h [2, 7]: 43.64 µg·h/mL | CL [2, 7]: 1.786 L/h | V2 [2, 7]: 11.922 L | Css,avg ([2]; Chinese MDR Gram-negative infected patients, ref Wang et al., 2021 [49]): 3.33 µg/mL | AUCss,0–24h [2, 8]: 67.2 µg·h/mL | Cmax,ss [2, 8]: 5.9 µg/mL | Cmin,ss [2, 8]: 1.9 µg/mL | V1 [2, 8]: 12.5 ± 5.67 L | V2 [2, 8]: 29.9 ± 17.3 L | AUCss,0–24h [2, 9]: 67.2 µg·h/mL | Cmax,ss [2, 9]: 5.9 µg/mL | Cmin,ss [2, 9]: 1.9 µg/mL | V1 [2, 9]: 12.5 L | V2 [2, 9]: 29.9 L | CL [2, 10]: 1.67 L/h | Cmax [2, 10]: 4.59 µg/mL | V1 [2, 10]: 7.857 L | V2 [2, 10]: 12.668 L | t1/2 [2, 10]: 5.29 h | AUCss,0–24h [2, 11]: 79.6 µg·h/mL | CL [2, 11]: 1.6 L/h | Css,avg [2, 11]: 3.35 µg/mL | V1 [2, 11]: 38.6 L | V2 [2, 11]: 7.13 L | AUCss,0–24h ([2]; Chinese patients with CRO infections, 1.5–3.0 mg/kg/day, two-compartment model, ref Yang et al., 2022 [55]): 58.5 µg·h/mL | C0 h ([2]; Chinese patients with CRO infections, ref Yang et al., 2022 [55]): 1.24 µg/mL | V1 ([2]; Chinese patients with severe CRO infections, loading 1.73, maintain 2.22 mg/kg/day, two-compartment model, ref Luo et al., 2022 [54]): 11.7 L | AUCss,0–24h ([2]; Chinese patients with severe pneumonia, 50 mg every 12 h (infusion for 1 h), noncompartment model, ref Chen et al., 2021 [58]): 72.7 µg·h/mL | t1/2 ([2]; Chinese patients with severe pneumonia, 50 mg every 12 h, ref Chen et al., 2021 [58]): 8.69 h | CL [2, 12]: 1.59 L/h | Vd [2, 12]: 20.5 L | AUCss,0–12 h ([2]; ECMO, Russian critically ill patients, COVID-19-associated pneumonia, loading 200–300 mg, 2.5–3 mg/kg/day, noncompartmental, ELISA, ref Surovoy et al., 2022 [53]): 43.38 µg·h/mL | AUCss,0–24h [2, 13]: 96.8 µg·h/mL | CSS,avg [2, 13]: 4.03 mg/L | Cmax [2, 13]: 5.96 µg/mL | Cmin [2, 13]: 2.4 µg/mL | Tmax [2, 13]: 5 ± 24 min | Vd [2, 13]: 19.73 L | Cmin ([2]; Following the loading dose, Chinese patients with CRKP bloodstream infections, loading 2.5 mg/kg, 1.25 mg/kg every 12 h, ref Yu et al., 2022 [56]): 1.62 µg/mL | Cmax ([2]; Following the loading dose, Chinese patients with CRKP bloodstream infections, ref Yu et al., 2022 [56]): 5.53 µg/mL | CL ([2]; Non-CRRT, Chinese patients with severe CRO infections, ref Luo et al., 2022 [54]): 1.5 L/h | AUCss,0–12 h [2, 14]: 34.7 µg·h/mL | CL [2, 14]: 1.76 L/h | CSS,avg [2, 14]: 2.9 mg/L | Cmax [2, 14]: 5.08 µg/mL | Cmin [2, 14]: 2.15 µg/mL | Vd [2, 14]: 30.4 L | AUCss,0–24h ([2]; Normal renal function, Chinese patients, ref Wang et al., 2021 [49]): 68.63 µg·h/mL | AUC ([2]; Normal renal function, Thai, American patients, 1.5–2.5 mg/kg/day, ref Thamlikitkul et al., 2016 [52]): 63.5 µg·h/mL | CL ([2]; Normal renal function, Thai, American patients, ref Thamlikitkul et al., 2016 [52]): 2.5 ± 0.4 L/h | AUCss,0–24h ([2]; Renal insufficiency, Chinese patients, ref Wang et al., 2021 [49]): 93.04 µg·h/mL | AUC [2, 15]: 56.0 µg·h/mL | CL [2, 15]: 2.0 L/h | CL ([2]; human, in vivo): 1.95 L/h | Cmax ([2]; human, in vivo): 5.5 µg/mL | CL ([2]; in vivo, 0.4 mg/kg/day): 2.5 ± 1.1 L/h | Css,avg ([2]; in vivo): 1.48 µg/mL | V2 ([2]; in vivo): 17.9 L | urinary recovery [3]: < 5% | hepatobiliary metabolism (non-renal clearance) ([3]; in vivo): ~60%
